Results as given in paper PMC8187479, “Sugar phosphate activation of the stress sensor eIF2B” (Nature Communications, 2021).
“And” between values parts separate entries of the source, which are not always exact repeats. Equal values may be shown once.

Assays:
eIF2Bα = target: T1, eIF2Bα (Homo sapiens, UniProt Q14232); experiment: Differential scanning fluorimetry (Protein Thermal Shift), eIF2Bα Tm; type: binding; details: individual replicates Rep 1-4, control without metabolite about 64.1
T1 construct: made in house; host or cells: E. coli BL21(DE3)
T1 sequence (Q14232 1-305): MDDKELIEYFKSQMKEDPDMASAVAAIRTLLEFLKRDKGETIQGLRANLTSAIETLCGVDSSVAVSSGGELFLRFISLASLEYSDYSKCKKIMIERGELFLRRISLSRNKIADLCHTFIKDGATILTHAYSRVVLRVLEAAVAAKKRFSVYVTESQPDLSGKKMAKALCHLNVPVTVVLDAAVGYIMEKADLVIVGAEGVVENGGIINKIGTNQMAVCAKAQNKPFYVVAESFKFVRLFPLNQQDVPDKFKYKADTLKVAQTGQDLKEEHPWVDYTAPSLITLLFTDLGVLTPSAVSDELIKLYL
Experimental: The effect of metabolite binding on eIF2Bα Tm was assessed using the Protein Thermal Shift assay (Thermo Fisher), following manufacturer’s instructions. Briefly, reaction conditions for each 20 μL reaction were: 1.1 μg (1.5 μM) of eIF2Bα, 5 μl Thermal Shift buffer, 1X Thermal Shift dye, and metabolites in dose response. Reactions were run in 384-well format on a QuantStudio 6 Flex instrument (Thermo Fisher). The resulting melt curves were analyzed using Protein Thermal Shift Software, and eIF2Bα Tms for each condition were calculated by fitting to the Boltzmann function.

[1] = system: recombinant C. thermophilum eIF2Bα; set-up: method as in PMID 26384431; details: ITC; cited from earlier work
[2] = target: the molecule itself; experiment: SEC; purified eIF2Bα alone, 2.4 μM, Superose 6 Increase 10/300, 25 mM HEPES, 200 mM KCl, 2 mM MgCl2, 1 mM DTT, pH 7.5; no ligand (500 nM ISRIB had no effect)

## Nc1nc2c(ncn2[C@@H]2O[C@H](COP(=O)(O)O)[C@@H](O)[C@H]2O)c(=O)[nH]1 [GMP]
eIF2Bα; 0.33 mM metabolite
  Tm of eIF2Bα: 65.0444 °C and 64.6931 °C and 64.6421 °C and 63.969 °C
eIF2Bα; 1 mM metabolite
  Tm of eIF2Bα: 65.9427 °C and 65.8956 °C and 65.7456 °C and 64.3903 °C
eIF2Bα; 3.3 mM metabolite
  Tm of eIF2Bα: 65.9427 °C and 65.7951 °C and 65.7602 °C and 64.8164 °C
eIF2Bα; 10 mM metabolite
  Tm of eIF2Bα: 66.5064 °C and 66.3635 °C and 66.1504 °C and 64.9333 °C
[1]
  binding to C. thermophilum eIF2Bα: binding

B1: eIF2Bα (eukaryotic translation initiation factor 2B, α subunit), wild type, recombinant (natural protein, human)
chain: MDDKELIEYFKSQMKEDPDMASAVAAIRTLLEFLKRDKGETIQGLRANLTSAIETLCGVDSSVAVSSGGELFLRFISLASLEYSDYSKCKKIMIERGELFLRRISLSRNKIADLCHTFIKDGATILTHAYSRVVLRVLEAAVAAKKRFSVYVTESQPDLSGKKMAKALCHLNVPVTVVLDAAVGYIMEKADLVIVGAEGVVENGGIINKIGTNQMAVCAKAQNKPFYVVAESFKFVRLFPLNQQDVPDKFKYKADTLKVAQTGQDLKEEHPWVDYTAPSLITLLFTDLGVLTPSAVSDELIKLYL
notes: eIF2Bα, human, UniProt Q14232; called the small 34 kDa eIF2Bα subunit; C-terminal TEV-avi-FLAG tag; also called eIF2Bα2; α2
[2]
  stoichiometry N: 2
